Data taken from patent publication US6835563B1, “Compositions and methods for increasing cholesterol efflux and raising HDL ATP binding cassette transporter protein ABC1” (CV Therapeutics, priority 1999, dated 2004).

Columns and labels:
ABC1 protein = experiment: Cell-surface ABC1 protein by biotin labeling and immunoprecipitation; format: cell-based, human; conditions: serum deprivation and cholesterol-loading (30 μg/ml, 48 h), normal and TD1 cells
Experimental: Cell-surface labeling and immunoprecipitation was used to determine whether increased expression of ABC1 protein in the plasma membrane is correlated with an increase in cholesterol efflux (FIG. 10). The relative amount of ABC1 on the cell surface was determined by cross-linking surface proteins on intact cells with the membrane-impermeable agent sulfo-NHS-biotin, followed by the steps of membrane solubilization, immunoprecipitation with ABC1 antibody, SDS-PAGE, and detection with streptavidin.
Both normal and TD1 cells were cultured under control conditions and conditions known to increase apolipoprotein-mediated cholesterol efflux (Oram, et al., J. Lip. Res., 40: 1769-1781 (1999)). […] Cholesterol-loaded cells were grown to confluence in DMEM/10% FBS and then incubated in DMEM/BSA for 48 hours with 30 μg/ml cholesterol plus 18 hours with no additives (cholesterol). […]
Detection of ABC1 Protein: The eluted biotinylated proteins were subjected to SDS-PAGE (6% gel; 150V, 5 hours) and transferred to nitrocellulose membrane (200 mA, 18 hours). The nitrocellulose was probed with streptavidin-horse radish peroxidase (Amersham Pharmacia, Piscataway, N.J.; Cat. #RPN 1231) diluted 300-fold and detected by enhanced chemiluminescence labeling (ECL) according to vendor's protocol (Amersham Pharmacia, Piscataway, N.J.). […]

RAW 264.7 cells = experiment: Apo A-I-mediated cholesterol efflux from cholesterol-loaded RAW 264.7 macrophage cells; conditions: control cells, apo A-I only
Experimental: Assay to Measure Lipid Efflux: Apo AI-mediated efflux of cholesterol and, phospholipid was assayed according to the method described in. […] RAW 264.7 cells were cholesterol-loaded through the scavenger receptor by 24-hour incubation with acetylated LDL as described in Smith et al., J. Biol. Chem., 271:30647-30655 (1996). Briefly, RAW 264.7 cells in 24-well dishes were cholesterol-loaded and labeled overnight in 0.5 ml of DMEM supplemented with 50 μl/ml 1M glucose, 10 μl/ml 200 mM glutamine and 2% BSA and with 50 μg/ml acetylated low density lipoprotein (AcLDL) and [^3H]-cholesterol which had been pre-incubated for 30 minutes at 37° C. with AcLDL to yield a final concentration of 0.33 μCi/ml [^3H]-cholesterol. Cells were subsequently washed five times with PBS containing 1% BSA and incubated overnight (16-18 hours) in DMEM/BSA to allow for equilibrium of cholesterol pools. After equilibrium of cholesterol pools, cells were rinsed four times with PBS/BSA and incubated for one hour at 37° C. with DMEM/BSA before the efflux incubations. Efflux medium (DMEM/BSA) containing either albumin alone (control), albumin plus HDL (40 μg protein/ml), or albumin plus apo A-I (10 μg/ml, Biodesign International, Kennebunk, Me.) was added and the cells were incubated for 4, 24, or 48 hours. […] The radioactivity found in the culture medium was measured by scintillation counting after a 15-minute centrifugation at 12,000 g. The radioactivity in the cells was measured by scintillation counting after solubilization in 0.5 ml of 0.2M NaOH (Smith et al., J. Biol. Chem., 271:30647-30655 (1996)) or extraction in hexane:isopropanol (3:2 v/v) as described in Francis, et al., J. Clin. Invest., 96, 78-87 (1995). […] The efflux of cholesterol or phospholipid was expressed as the percentage of tritiated lipid counts in the medium over the total tritiated lipid counts recovered from the cells and medium (cpm medium/cpm (medium+lysate)×100).
Briefly, RAW 264.7 cells suspended at a density of 1.25×10^5 cells/ml were grown in DMEM/10% FBS supplemented with pyruvate. After 24 hours, the medium was removed and replaced with DMEM/BSA plus radiolabeled cholesterol (1 μCi/ml ^3[H]-cholesterol) and 50 μg/ml of acetylated LDL for 24 hours. The cells were then maintained for 24 hours in equilibrium medium consisting of DMEM/BSA plus either apo A-I alone (20 μg/ml), apo A-I and 8-bromo 3′, 5′ cAMP (1 mM) or apo A-I and rolipram (50 μM).

ABC1 mRNA [1] = experiment: ABC1 mRNA by quantitative RT-PCR in normal fibroblasts; format: cell-based, human; conditions: apo A-I 10 μg/ml 18-24 h
Experimental: (§1) To determine whether ABC1 plays a rate-limiting role in cellular sterol efflux, the synthesis of ABC1 was measured under various cellular conditions related to cholesterol efflux processes. Specifically, normal fibroblasts and TD fibroblasts were individually exposed to conditions of excess cAMP, cholesterol, or Apo A-I. Cell cultures of normal skin fibroblasts and TD1 and TD2 fibroblasts were prepared as described in Example 1. The level of ABC1 mRNA was measured by RT-PCR. Cell cultures: Immortalized cell cultures of normal skin fibroblasts and TD1 and TD2 fibroblasts were prepared as described in Example 1. Cells were grown to subconfluence in DMEM/10% FBS before replacement with DMEM/BSA and the indicated additive for 24 or 48 hours. RNA was prepared as described in Example 2. RT-PCR: Quantitative PCR was carried out using the GeneAmp 5700 Sequence. Detection System (Perkin-Elmer Applied Biosystems, Foster City, Calif.). Briefly, 500 ng of DNase-treated mRNA was reverse transcribed using random hexamer primers at 2.5 μM. Approximately 5% of this reaction was amplified by PCR using the SYBR green core kit (PE. Applied Biosystems, Foster City, Calif.; Cat. #4304886) and human ABC1 primers […] […] The mRNA in each sample was quantitated by detecting the increase in fluorescence caused by SYBR green binding to the double-stranded amplification product generated during each PCR cycle. […]

normal fibroblasts = experiment: HDL- and apo A-I-mediated [3H]cholesterol efflux from normal fibroblasts; format: cell-based, human; conditions: HDL 40 μg protein/ml or apo A-I 10 μg/ml, up to 48 h
Experimental: (§2) Cell Cultures: Human fibroblasts were obtained from skin explants from two normal subjects (NL1) and three unrelated patients with Tangier disease (TD). TD1 cells were obtained from a person with extremely low plasma HDL cholesterol and apo A-I levels and clinical symptoms typical of Tangier disease. […] TD3 cells were obtained from a person with Tangier disease who presented with orange tonsil remnants, asymmetrical motor neuropathy, plasma HDL cholesterol of 5 mg/dL, and LDL cholesterol of 16 mg/dL (Lawn et al., J. Clin. Invest., 104, R25-R31 (1999)). The normal cells and TD subject cells were immortalized as described in Oram et al., J. Lipid. Res., 40: 1769-1781 (1999). Briefly, the cells were transfected with amphotropic retroviruses containing vectors with inserts of human papillomavirus 16-oncogenes E6 and E7 and a neomycin resistance selectable marker. Control cells were infected with vector alone (mock-infected). Pooled cell populations were selected in the presence of G418 for two passages, after which G418 was excluded from the medium. Fibroblasts were used between the fifth and sixteenth passage (primary) or sixth and fourteenth passage (immortalized). The immortalized normal and TD cells were seeded into 16-mm wells or 35-mm dishes and grown to confluence in. Dulbecco's modified. Eagle's medium (DMEM) plus 10% fetal bovine serum (FBS) before experimental use. […]

ABC1 mRNA [2] = experiment: ABC1 mRNA by quantitative RT-PCR in TD1 and TD2 fibroblasts; format: cell-based, human; conditions: apo A-I 10 μg/ml
Experimental: as §1

TD fibroblasts = experiment: HDL- and apo A-I-mediated [3H]cholesterol efflux from Tangier disease fibroblasts; format: cell-based, human; conditions: HDL 40 μg protein/ml or apo A-I 10 μg/ml, up to 48 h
Experimental: as §2

Molecule | cell-surface expression of ABC1 (ABC1 protein) | cholesterol efflux (RAW 264.7 cells) | ABC1 mRNA expression on subsequent exposure of cholesterol-loaded cells (ABC1 mRNA [1]) | efflux of [3H]-cholesterol on addition to albumin medium (normal fibroblasts) | ABC1 expression on exposure of cholesterol-loaded cells (ABC1 mRNA [2]; TD1 cells) | ABC1 expression on exposure of cholesterol-loaded cells (ABC1 mRNA [2]; TD2 cells) | efflux of [3H]-cholesterol on addition to albumin medium (TD fibroblasts)
CC(C)CCC[C@@H](C)[C@H]1CC[C@H]2[C@@H]3CC=C4C[C@@H](O)CC[C@]4(C)[C@H]3CC[C@]12C [cholesterol] | markedly increased | – | – | – | – | – | –
apo A-I: apolipoprotein cholesterol acceptor (Biodesign International) | – | 1890 c.p.m. | marked decrease | promoted the efflux | did not alter ABC1 expression | slightly increased ABC1 expression | little or no effect
